Measured values as given in paper PMC10065799, “High-throughput profiling of sequence recognition by tyrosine kinases and SH2 domains using bacterial peptide display” (eLife, 2023).

The sequences below were run against c-Src kinase domain (Homo sapiens, UniProt P12931) (assay: pTyr-Var library bacterial peptide display kinase screen (enrichment scores)). Settings: sheet "Src"; effect of the variant peptide relative to its reference peptide in the pTyr-Var library screen.
Type: biochemical

Sequence | Screen
LFSNAYLSDLA [ALDH1A1_Y119_N121S_YF] | 1.319
EGDGVYTLNNK [HP_Y125_E130K] | 0.08373
RPAFTYATLIR [FOXP3_Y342_P339A] | 1.034
RPPFTYATLIH [FOXP3_Y342_R347H] | 0.0554
KHCEDYVFSFN [DSC1_Y846_C848F_YF] | 1.064
NVADHYRVFKP [ATP6V0D2_Y271_G272R_YF] | -3.184
EFQLPYFNTVP [BMPR1A_Y457_M460T_YF] | -0.7468
LDFNEYFRFLN [HPRT1_Y198_D201Y_YF] | 2.939
KEKLCYVAPDF [ACTA1_Y220_L223P] | -1.653
VDGSVYKLPPS [GCK_Y413_H416P] | -1.181
NNDLCYWVLEL [IARS1_Y434_P437L] | 1.285
FVPSFYHAFSG [ACTN4_Y265_S262P_YF] | -1.103
PQDVTYARLHS [LILRB4_Y412_Q414R] | -0.3004
DPLLTYLFPPK [LMNA_Y481_R482L] | 2.327
CFSSEYHFVGG [CTSC_Y345_Y340C_YF] | -0.6697
IRSGIYFKPES [L2HGDH_Y102_H98R_YF] | -1.512
IDPFTYTPFGS [CYP3A4_Y432_I431T_YF] | -1.161
IGERTYGQVFK [CDK13_Y716_G714R_YF] | -0.5578
QQMGTYGVRAA [ICAM2_Y260_R256Q] | 0.6458
EWCSPYGLTPR [GRIN3B_Y601_R598C] | 1.62
QPEDIYHQTWA [GBA_Y244_G241E] | 0.7767
ASENVYVNTAH [CTSC_Y150_I153T] | -1.46
SDPIVYTLENI [EMR1_Y534_I533V] | -0.3296
QMVGKYASSFM [AVPR2_Y124_M123K_YF] | -1.364

Same assay, conditions: sheet "Src"; variant peptide versus its reference peptide in the pTyr-Var library screen

Sequence | Screen
FSCLPYRRLAF [SLC52A2_Y305_G306R_YF] | -1.493
KCCCIYEKPRS [PPP1R11_Y64_A69S] | -0.2424
NTGVFYDLFGG [PTPN11_Y63_D61V_YF] | 0.1029
RRIHSYRGQLW [VHL_Y112_H115Q] | -2.232
PLDGGYFTLQI [TP53_Y327_E326G] | -1.493
PPSELYFVKVD [TERT_Y707_P704S] | -0.06532
RRIHSYRGHLC [VHL_Y112_W117C] | -2.769
ESAAIYNPVIF [RHO_Y301_K296E_YF] | 0.5635
SVMAEYGLFRA [VSX2_Y219_G223R_YF] | -0.02483
NAGDFYDLFGG [PTPN11_Y63_T59A_YF] | 0.4386
NQELIYEGQRL [TBK1_Y354_R357Q] | -0.1995

Each sequence was assayed against T1, c-Abl kinase domain (Mus musculus, UniProt P00520) in the same assay as above. Settings: fig5-data2, sheet "Abl"; Screen for the variant/reference peptide pair, pTyr-Var library.
T1 sequence (P00520 242-493 limits assumed): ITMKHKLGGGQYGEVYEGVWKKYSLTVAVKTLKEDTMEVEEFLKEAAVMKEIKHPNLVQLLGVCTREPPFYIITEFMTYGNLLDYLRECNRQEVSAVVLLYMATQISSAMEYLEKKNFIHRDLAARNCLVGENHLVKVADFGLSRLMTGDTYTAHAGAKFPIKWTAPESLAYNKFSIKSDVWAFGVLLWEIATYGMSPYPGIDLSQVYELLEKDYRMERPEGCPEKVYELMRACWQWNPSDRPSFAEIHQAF
Type: biochemical

Sequence | Screen
EVDETYVPKKF [ALB_Y521_E525K] | 0.9455
RPAFTYATLIR [FOXP3_Y342_P339A] | 1.493
KCCCIYEKPRS [PPP1R11_Y64_A69S] | 0.7147
EIIPFYGMSSF [FNDC3B_Y175_T179S_YF] | -1.124
IGGHAYGDQFR [IDH1_Y135_R132G_YF] | -1.313
RSHRSYSCQVM [IGLL1_Y192_R189H] | -0.4092
KGEDFYCVTRH [FHL1_Y149_C153R] | -2.042
REGAKYVSHCA [ASS1_Y113_G117C] | -1.469
LTERSYSFVTT [ACTA1_Y200_G199S] | 0.4799
PQDVTYARLHS [LILRB4_Y412_Q414R] | -1.045
SLNEEYAKNKT [MSH2_Y563_T564A] | 0.808
ENKGVYVPMSG [IVD_Y277_L279P] | -1.069
GFKVRYATGSI [FGFR1_Y210_W213G_YF] | 1.302
MLEVPYVDHNS [F10_Y384_R387H] | 2.373
FRRITYFNWRH [PDE6B_Y556_H557Y_YF] | 1.003
EFTAGYNVKFD [GPX4_Y123_A120T] | -0.6842

Sequence | Screen
ASPKSYPSQKH [CAP2_Y316_T311A] | 0.389
LEIETYPRLLD [KRT12_Y429_R430P] | 0.133
RALCHYFKLNI [ETV6_Y401_R399C_YF] | 0.924
RGRSTYFWPSP [GAGE12J_Y9_R13S_YF] | 0.4744
DKATEYIQFVR [MAX_Y70_M74V_YF] | 0.6462
PRLMLYNPTTF [EGFR_Y270_P266R_YF] | -1.245
RLNCIYFKDQT [RS1_Y165_W163C_YF] | 0.3384
IDAVCYFRMEN [NPHS2_Y194_I192V_YF] | -2.251
NAGDFYDLFGG [PTPN11_Y63_T59A_YF] | -0.2092
DPEGAYTTRGG [EPHA3_Y779_A777G] | -2.084
EFITRYIDSLK [PSMA7_Y110_A112D_YF] | -0.5363
RIDPDYMGRVR [IGSF9_Y81_V82M] | 0.7055
PNAFIYVVQLP [L1CAM_Y420_A415P_YF] | 0.6294
DVRQEYSGMIL [PLXND1_Y616_P617S] | -0.7051
KRIETYFSKNF [PLP1_Y50_L46R_YF] | -0.1285

Same assay, conditions: sheet "Abl"; effect of variant peptide relative to its reference peptide in pTyr-Var library screen (enrichment)

Sequence | Screen
DTQNSYRCATS [TSC1_Y304_G305R] | -1.491
RRGMPYGGHGD [TGM1_Y312_R315H] | 0.4767
LEPGIYIPEDD [XPNPEP3_Y455_I450L] | -2.688
LLKMMYLMLDN [STAT1_Y203_K201M] | 0.1881
EIASHYRHLLR [ZBTB46_Y14_T11A] | -2.772
KPGVNYFFQVS [TTN_Y28165_R28168Q_YF] | -1.428
TGFRPYVCPFD [YY1_Y383_D380Y_YF] | -3.682
NGEDLYAGSTD [XRCC1_Y515_P514L] | 3.605
HLQDEYDFKCK [STAT1_Y170_D165H] | -0.7143
CVAARYMDMKG [WFIKKN2_Y93_V96M] | -2.912
DKPENYRRLDI [VHL_Y175_V170D] | -0.4882
SVTFTYSPALN [TP53_Y126_C124Y_YF] | 1.264
TENAGYFFQVS [TTN_Y31721_R31724Q_YF] | -1.788
KDHPDYKFQRR [SOX10_Y171_P175R_YF] | -0.3891
HSREDYFECFQ [ZIM2_Y411_Q408R] | -4.72
DVQNEYDSNHC [ZFYVE16_Y36_A35E] | 2.88
IVRSLYEDPED [VHL_Y185_L188P] | -2.672

These sequences were tested on Fer kinase domain in the same assay as above. Settings: sheet "Fer"; value of the variant peptide against its reference peptide in the pTyr-Var library screen with Fer.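 Further: log2 fold change in enrichment of variant over reference.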
Type: biochemical, mouse

Sequence | Screen
KCCCIYEKPRS [PPP1R11_Y64_A69S] | -0.1382
QRCFVYFFSFL [PTEN_Y176_R173C_YF] | 0.1249
FTFNSYFMHWV [IGHV1-46_Y51_T49N_YF] | 1.775
NTGVFYDLFGG [PTPN11_Y63_D61V_YF] | 0.6171
QRHFVYFFSFL [PTEN_Y176_R173H_YF] | 0.1451
LTERSYSFVTT [ACTA1_Y200_G199S] | 1.792
IDPFTYTPFGS [CYP3A4_Y432_I431T_YF] | -1.49
PLGPLYASSNT [INSR_Y992_P997T] | -0.7776
QPEDIYHQTWA [GBA_Y244_G241E] | 1.354
FPSLPYSPVSS [CAMKK2_Y128_C123Y_YF] | -0.5143
ASENVYVNTAH [CTSC_Y150_I153T] | -2.892
SDPIVYTLENI [EMR1_Y534_I533V] | -1.778

Same assay, conditions: sheet "Fer"; variant peptide relative to its reference peptide, pTyr-Var library screen enrichment

Sequence | Screen
FDSPFYQDSLP [TSC1_Y508_R509Q] | 2.568
FVTSMYNEILI [TRPV1_Y310_M315I] | 0.9219
AGDGRYEVLFL [SEMA3F_Y478_A474G] | 0.6103
ESAAIYNPVIF [RHO_Y301_K296E_YF] | 0.08101
NAGDFYDLFGG [PTPN11_Y63_T59A_YF] | 0.394
NQELIYEGQRL [TBK1_Y354_R357Q] | 0.5191

What follows are sequences tested on EPHB1 kinase domain in the same assay as above. Settings: sheet "EPHB1"; variant seq vs reference seq; bacterial peptide display enrichment.
Type: biochemical, human

Sequence | Screen (variant relative to reference peptide, measured in the pTyr-Var library screen)
RRIHSYRGQLW [VHL_Y112_H115Q] | -1.797
TGFRPYVCPFD [YY1_Y383_D380Y_YF] | 1.233
RRIHSYRGHLC [VHL_Y112_W117C] | -1.181
HSREDYFECFQ [ZIM2_Y411_Q408R] | -0.06401
MGSFNYLGFAW [SPTLC2_Y178_R183W_YF] | 1.333
PEVSGYCHFAD [TG_Y234_C237Y_YF] | -1.855

Same assay, conditions: sheet EPHB1; effect of the variant peptide relative to its reference peptide in the pTyr-Var library screen (enrichment scores)

Sequence | Screen
LFSNAYLSDLA [ALDH1A1_Y119_N121S_YF] | 1.358
RPAFTYATLIR [FOXP3_Y342_P339A] | -0.4742
RPPFTYATLIH [FOXP3_Y342_R347H] | 0.127
SSSPTYLDLPF [GLI3_Y168_P169L] | 3.84
KFLENYFDLEK [MMP3_Y41_K45E_YF] | 0.3113
VWALTYCDLHK [KCNH2_Y827_R823W] | 1.577
NNHGNYIVLLG [ETFDH_Y172_R175L] | 3.773
NNDLCYWVLEL [IARS1_Y434_P437L] | -1.633
FVPSFYHAFSG [ACTN4_Y265_S262P_YF] | -0.2788
FGSGNYNVFGN [HNRNPA2B1_Y300_D302V_YF] | -1.963
CFSSEYHFVGG [CTSC_Y345_Y340C_YF] | -0.7957
LPKDLYLISQM [LARP4_Y141_S137P] | -0.9052
RVLHNYLVWCV [ECEL1_Y400_R404C] | -0.3702
PKSWNYELPAT [PROM1_Y34_A31S] | 0.9154
CPFNLYAAQLS [HGD_Y40_E42A_YF] | 0.6281
LKMLVYMDMSK [LRRC7_Y234_L235M] | 1.011
ASENVYVNTAH [CTSC_Y150_I153T] | -1.518

Each sequence was assayed on EPHB2 kinase domain in the same assay as above. Settings: sheet EPHB2; effect of variant peptide relative to its reference peptide in the pTyr-Var library screen (enrichment scores).
Type: biochemical, human

Sequence | Screen
NNHGNYIVLLG [ETFDH_Y172_R175L] | 2.804
NNDLCYWVLEL [IARS1_Y434_P437L] | -2.3
CFSSEYHFVGG [CTSC_Y345_Y340C_YF] | -0.9567
LEQGEYALRSH [HADHB_Y244_D242G] | -1.376
PKSWNYELPAT [PROM1_Y34_A31S] | 0.6095
HRGCLYLAIEF [TEK_Y899_Y897C_YF] | 0.2155
PNAFIYVVQLP [L1CAM_Y420_A415P_YF] | 0.851
